The values below come from patent US11634443B2, “Treprostinil prodrugs” (United Therapeutics Corporation, priority 2019, dated 2023).

Data set [1] concerns the target T1, prostaglandin I2 (PGI2) receptor (IP) (Homo sapiens, UniProt P43119).
T1 construct: expressed in transfected cells; host or cells: CHO-K1
Kind of data set: IP receptor cAMP assay (agonist mode). The data set is classed as cell-based. The following applies: Table 20; agonist mode; NC = too inactive to realistically calculate; * partial agonists or odd dose-response curves.

Data set [2] deals with T2, prostaglandin D2 (PGD2) receptor 1 (DP1) (Homo sapiens, UniProt Q13258).
T2 construct: expressed in transfected cells; host or cells: HEK293T
T2 sequence (Q13258 1-359): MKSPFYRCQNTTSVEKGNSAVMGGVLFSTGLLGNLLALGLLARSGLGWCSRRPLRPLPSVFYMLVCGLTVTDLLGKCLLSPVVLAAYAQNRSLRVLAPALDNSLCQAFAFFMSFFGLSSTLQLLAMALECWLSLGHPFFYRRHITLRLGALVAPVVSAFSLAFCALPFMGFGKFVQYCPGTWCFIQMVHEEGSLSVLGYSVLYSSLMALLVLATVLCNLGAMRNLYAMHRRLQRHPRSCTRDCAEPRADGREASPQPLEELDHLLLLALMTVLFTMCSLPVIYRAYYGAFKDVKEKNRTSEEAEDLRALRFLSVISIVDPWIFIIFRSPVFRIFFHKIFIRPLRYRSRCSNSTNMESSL
Kind of data set: DP1 receptor cAMP assay (agonist mode). The data set is classed as cell-based.
Protocol: Assay Buffer: • EP1 Calcium and DP1 cAMP Assays: HBSS plus 20 mM HEPES • EP2 and IP1 cAMP Assays: 1 mM IBMX in HBSS plus 20 mM HEPES
Cells were thawed from frozen cells and resuspended in assay buffer at desired concentrations. cAMP or Calcium assays were performed according to the manufacturer's protocol using Multiscreen™ TR-FRET cAMP 1.0 No Wash Assay Kit or Multiscreen™ Calcium 1.0 No Wash Kit.
Gas Cyclic AMP (cAMP) Assay: In agonist mode testing, cells were seeded in a 384-well plate at an appropriate density and then were treated with compounds and incubated at 37° C. for 20 minutes. The reaction was terminated by sequentially adding sequentially adding trFluor™ Eu-labeled cAMP and trFluor™ 650-labeled anti-cAMP antibody in lysis buffer. […] All testing wells contained 0.1% DMSO in the final concentrations.
Data in graphs are represented in Mean±SD. Dose-dependent responses were fitted with sigmoidal dose-response curves allowing variable slopes using GraphPad Prism version 6 (Graphpad Prism).
These studies used cell lines overexpressing either human IP, EP2 or DP1, or EP1 receptors, and following incubation with varying concentrations of compounds, cAMP levels were measured using Fluorescence Resonance Energy Transfer (FRET).

Data set [3] in a line: Clinical signs and mortality after single oral gavage or IV bolus dose in rats. Format: in vivo. The note with it: male Crl:CD(SD) rats. As to the method:
Animals received a single dose via oral gavage or intravenous (bolus) injection. The following parameters and end points were evaluated in this study: clinical signs and pharmacokinetic parameters. Single males in the oral 50 mg/kg prodrugs XVII and VI group were found dead on Day 2. No macroscopic findings were noted. All other animals survived to the scheduled euthanasia.
Animals were not removed from the cage during observations, unless necessary for identification or confirmation of possible findings.
The animals were removed from the cage, and a detailed clinical observation was performed on the day of animal selection. Cage side observations were performed at 1 to 2 hours post dose. Animals were weighed individually following receipt, on the day of randomization, and on each day of dosing (prior to dosing). Individual body weights are presented below.
All surviving animals were euthanized and discarded. A necropsy was conducted for animals that died on study, and specified tissues were saved.

A short description of data set [4]: Stability and formation of treprostinil in human cryopreserved hepatocytes. As to the method:
(§1) Mixed-gender human cryopreserved hepatocytes, male Sprague-Dawley rat cryopreserved hepatocytes, and male Beagle dog cryopreserved hepatocytes were purchased from XenoTech. The hepatocytes were thawed and prepared according to the vendor's instructions, pooled into Krebs Henseleit buffer (KHB, pH 7.4), and kept on ice prior to the experiments. […] The final DMSO content in the incubation mixture was ≤0.1%. […] Aliquots of the test article were withdrawn (n=1) at 0, 15, 30, 60, and 120 minutes. […] Aliquots of 7-HC were withdrawn (n=1) at 0 and 15 minutes. The reaction was immediately terminated by adding two volumes of ice-cold acetonitrile (ACN) to the test article samples and three volumes of ACN containing internal standard to the positive control samples.

Data set [5] can be described thus: Stability and formation of treprostinil in rat cryopreserved hepatocytes. As to the method:
as §1

Data set [6] can be described thus: Stability and formation of treprostinil in dog cryopreserved hepatocytes. The procedure:
as §1

The conditions of data set [7]: for Dose proportionality of mean treprostinil Cmax and AUC0-24hr: PO 1 to 50 mg/kg prodrug.
Where [8] appears, read: treprostinil in plasma, single IV bolus 1 mg/kg prodrug, male rats.
The mark [9] stands for this setting: treprostinil in plasma, single PO 1 mg/kg prodrug, male rats.
Where [10] appears, read: parent prodrug in plasma, single IV bolus 1 mg/kg, male rats.
[11] abbreviates: parent prodrug in plasma, single PO 1, 10 and 50 mg/kg (all PO groups), male rats.
Setting [12] is: parent prodrug in plasma, single PO or IV bolus, male rats.
Setting [13] is: treprostinil in plasma, male rats.
Setting [14] is: treprostinil in plasma, single IV bolus 1 mg/kg prodrug, individual animals, male rats.
Setting [15] is: treprostinil in plasma, single PO 10 mg/kg prodrug, male rats.

Where “and” joins values, the source holds several entries; their conditions need not be identical. Equal entries are not always repeated. Entries after “also recorded” stand apart in the source; their conditions may differ. Where two headings read alike, the source gives them in different places.

T1 sequence (P43119 whole entry): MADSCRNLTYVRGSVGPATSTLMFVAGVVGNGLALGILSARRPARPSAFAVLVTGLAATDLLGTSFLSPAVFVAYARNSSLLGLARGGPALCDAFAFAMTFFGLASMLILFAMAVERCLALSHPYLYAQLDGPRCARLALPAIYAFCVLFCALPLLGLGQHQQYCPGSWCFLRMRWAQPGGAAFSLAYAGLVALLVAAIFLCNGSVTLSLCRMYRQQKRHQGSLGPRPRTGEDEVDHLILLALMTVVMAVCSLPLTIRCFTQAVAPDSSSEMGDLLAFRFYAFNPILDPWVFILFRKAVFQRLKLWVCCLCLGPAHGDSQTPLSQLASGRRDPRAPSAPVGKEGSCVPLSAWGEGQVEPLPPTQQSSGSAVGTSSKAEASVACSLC

On to `CCCCC[C@H](O)CC[C@@H]1[C@H]2Cc3cccc(OCC(=O)O)c3C[C@H]2C[C@H]1OC` [Prodrug LXIII, treprostinil cyclopentyl methyl ether], for which the “EC50 Fold Different from Treprostinil, IP Receptor” value in data set [1] is 208x. In addition, in data set [2] (Table 20, agonist mode, NC = too inactive to realistically calculate, * partial agonists or odd dose-response curves), the “EC50 Fold Different from Treprostinil, DP1 Receptor” value is given as 217x*.

As to `CCCCC[C@@H](CC[C@@H]1[C@H]2Cc3cccc(OCC(=O)O)c3C[C@H]2C[C@H]1O)OP(=O)(O)O` [Prodrug VI, treprostinil side chain phosphate], the “Test article-related (adverse) clinical observations” value (from here on “Test article-related”) in data set [3] (single IV bolus 1 mg/kg) was “adverse clinical observations”. Besides, in data set [3] (single oral 50 mg/kg), the “Test article-related” value was “adverse clinical observations”. Besides, in data set [3] (single oral 50 mg/kg, 50 mg/kg), the Mortality entry was “found dead; also recorded: lethality”. In data set [4], the “Treprostinil Concentration, 0 min” value was determined as 0 µM; the “Treprostinil Concentration, 15 min” value was 0.223 µM; the “Treprostinil Concentration, 30 min” value stood at 0.365 µM; the “Treprostinil Concentration, 60 min” value amounted to 0.466 µM. The “Treprostinil Concentration, 120 min” value in data set [4] amounted to 0.540 µM. In data set [5], the “Treprostinil Concentration, 0 min” value was 0.128 µM; the “Treprostinil Concentration, 15 min” value came out at 0.693 µM; the “Treprostinil Concentration, 30 min” value amounted to 0.635 µM; the “Treprostinil Concentration, 60 min” value worked out at 0.564 µM. Moreover, the “Treprostinil Concentration, 120 min” value in data set [5] came out at 0.53 µM. In addition, in data set [6], the “Treprostinil Concentration, 0 min” value stood at 0.0124 µM; the “Treprostinil Concentration, 15 min” value was 0.581 µM; the “Treprostinil Concentration, 30 min” value came out at 0.609 µM; the “Treprostinil Concentration, 60 min” value stood at 0.533 µM. Further, the “Treprostinil Concentration, 120 min” value in data set [6] was 0.548 µM. Further, the “Activity, DP1 Relative to Tre” value in data set [2] (Table 24, relative to treprostinil EC50 values, * partial agonists or ambiguous dose-response curves, image character = too high to realistically calculate) was 2x. Also, the “T1/2 of prodrug (single animal)” value in data set [7] (parent prodrug, single PO 50 mg/kg, single animal, male rats) was determined as 1.76 h. In data set [7] (rat, in vivo, iv, 1 mg/kg), the Prodrug plasma concentrations result is recorded as “BLQ” and the “Prodrug plasma concentrations (BQL)” value is recorded as less than 1.00 ng/mL. Besides, the Prodrug plasma concentrations entry in data set [7] (rat, in vivo, po, 1 mg/kg) is “BLQ”. Further, the Prodrug plasma concentrations result in data set [7] (rat, in vivo, po, 10 mg/kg) is given as “BLQ”. Also, in data set [7] (rat, in vivo, po, 50 mg/kg), the “AUCINF of prodrug (single animal)” value amounted to 28.2 ng·h/mL; the “Mean AUC0-24hr of prodrug” value came out at 242 ng·h/mL; the “Prodrug quantifiable up to (time postdose)” value is reported as 2, 4, 8, or 24 hours. In data set [7] (setting [8]), the “Mean T1/2 of treprostinil” value was 1.90 h. Further, in data set [7] (setting [9]), the “Mean Cl/F of treprostinil” value worked out at 448.33 mL/min/kg and the “Mean T1/2 of treprostinil” value was determined as 14.0 h.

Consider `CCCCC[C@@H](CC[C@@H]1[C@H]2Cc3cccc(OCC(=O)O)c3C[C@H]2C[C@H]1O)OC(=O)OCC` [Prodrug XVI, treprostinil side chain ethyl carbonate], for which the “Test article-related” value in data set [3] (single IV bolus 1 mg/kg) is listed as “adverse clinical observations”. For the same compound, in data set [3] (single oral 50 mg/kg), the Mortality result is “found dead” and the “Test article-related” value is “adverse clinical observations”. In data set [7] (setting [10]), the Prodrug plasma concentrations entry was “BLQ”. In data set [7] (setting [11]), the Prodrug plasma concentrations result is listed as “BLQ”. The “Prodrug plasma concentrations (BQL)” value in data set [7] (setting [12]) is given as less than 1.00 ng/mL. For the same compound, the “Dose proportionality of mean treprostinil Cmax and AUC0-24hr” value in data set [7] (setting [13]) is “less than dose proportional manner”. Besides, in data set [7] (setting [14]), the “Individual AUCINF of treprostinil” value was determined as 183 ng·h/mL, the “Individual Cl of treprostinil” value was determined as 91.17 mL/min/kg and the “Individual Vz of treprostinil” value is 5.7 L/kg. The “Individual T1/2 of treprostinil” value in data set [7] (treprostinil in plasma, single IV bolus 1 mg/kg prodrug, individual animals, male rats, 1 mg/kg) is 0.722 h and 1.10 h. Moreover, in data set [7] (setting [8]), the “Mean AUC0-12hr of treprostinil” value is 192 ng·h/mL, the “Mean C0 of treprostinil” value was determined as 549 ng/mL, the “Mean Cmax of treprostinil” value stood at 263 ng/mL and the “Mean T1/2 of treprostinil” value turned out to be 0.912 h. In addition, in data set [7] (setting [8]), the “Treprostinil quantifiable up to (time postdose)” value (from here on “Treprostinil quantifiable up”) is 2 h. Further, the “Individual AUC0-12hr of treprostinil” value in data set [7] (treprostinil in plasma, single IV bolus 1 mg/kg prodrug, male rats, 1 mg/kg) is 171 ng·h/mL and 214 ng·h/mL. Moreover, the “Treprostinil quantifiable up” value in data set [7] (setting [15]) worked out at 24 h. Besides, in data set [7] (treprostinil in plasma, single PO 50 mg/kg prodrug, male rats), the “Treprostinil quantifiable up” value was 24 h. In addition, in data set [7] (PO 1 mg/kg prodrug vs IV bolus 1 mg/kg prodrug, male rats, 1 mg/kg), the “PO bioavailability (% F) of treprostinil, based on mean AUCall/Dose” value (shortened to “PO bioavailability (% F) … on mean AUCall/Dose”) was 5.94% and 7.74%. Also, the “PO bioavailability (% F) … on mean AUCall/Dose” value in data set [7] (PO 10 mg/kg prodrug vs IV bolus 1 mg/kg prodrug, male rats) is 6.35% and 3.17%. Also, the “PO bioavailability (% F) … on mean AUCall/Dose” value in data set [7] (PO 50 mg/kg prodrug vs IV bolus 1 mg/kg prodrug, male rats) was 4.13% and 3.72%.

Regarding `CCCCC[C@@H](CC[C@@H]1[C@H]2Cc3cccc(OCC(=O)O)c3C[C@H]2C[C@H]1O)OC(=O)OC(C)C` [Prodrug XVII, treprostinil side chain isopropyl carbonate], the “Test article-related” value in data set [3] (single IV bolus 1 mg/kg) is on record as “adverse clinical observations”. In addition, in data set [3] (single oral 50 mg/kg), the “Test article-related” value is “adverse clinical observations”. In addition, in data set [3] (single oral 50 mg/kg, 50 mg/kg), the Mortality entry is listed as “found dead; also recorded: lethality”. In addition, the Prodrug plasma concentrations result in data set [7] (setting [10]) was “BLQ”. Also, the Prodrug plasma concentrations entry in data set [7] (setting [11]) is “BLQ”. In addition, the “Prodrug plasma concentrations (BQL)” value in data set [7] (setting [12]) is reported as less than 1.00 ng/mL. For the same compound, the “Dose proportionality of mean treprostinil Cmax and AUC0-24hr” value in data set [7] (setting [13]) was “less than dose proportional manner”. Besides, in data set [7] (setting [8]), the “Mean AUC0-12hr of treprostinil” value was 274 ng·h/mL, the “Mean C0 of treprostinil” value stood at 1350 ng/mL and the “Mean Cmax of treprostinil” value amounted to 466 ng/mL. The “Treprostinil quantifiable up” value in data set [7] (setting [15]) was 24 h.
